From the supplement of paper PMC7661543
± gives the standard deviation of the averaged measurements.

Assays:
Test in all cases: relative cell number vs DMSO control (72 h) (% of DMSO); higher = less growth inhibition (more cells)
Details in all cases: sgRNA knockout: sgNT
MDA-MB-231 = test system: MDA-MB-231
Method: (§1)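 QMAP-Seq: a pool of 5 breast cancer cell lines (ZR-75-1, SKBR3, HCC-38, MDA-MB-231, BT-20), each carrying 12 doxycycline-inducible Cas9 sgRNA perturbations (11 knockouts plus non-targeting sgNT), was treated with compounds for 72 h at four 10-fold doses (10 nM-10 uM or 1 nM-1 uM range). Barcodes were amplified and sequenced, and cell number was interpolated from 293T spike-in standard curves. The result is expressed as % of the median of DMSO wells. Two biological replicates.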

BT-20 = test system: BT-20
Method: as §1

SKBR3 = test system: SKBR3
Method: as §1

ZR-75-1 = test system: ZR-75-1
Method: as §1

HCC-38 = test system: HCC-38
Method: as §1

Row | Compound | relative cell number (MDA-MB-231; 10 nM) | relative cell number (MDA-MB-231; 100 nM) | relative cell number (MDA-MB-231; 1000 nM) | relative cell number (MDA-MB-231; 10000 nM) | relative cell number (BT-20; 10 nM) | relative cell number (BT-20; 100 nM) | relative cell number (BT-20; 1000 nM) | relative cell number (BT-20; 10000 nM) | relative cell number (SKBR3; 10 nM) | relative cell number (SKBR3; 100 nM) | relative cell number (SKBR3; 1000 nM) | relative cell number (SKBR3; 10000 nM) | relative cell number (ZR-75-1; 10 nM) | relative cell number (ZR-75-1; 100 nM) | relative cell number (ZR-75-1; 1000 nM) | relative cell number (ZR-75-1; 10000 nM) | relative cell number (HCC-38; 10 nM) | relative cell number (HCC-38; 100 nM) | relative cell number (HCC-38; 1000 nM) | relative cell number (HCC-38; 10000 nM)
1 | CC(C)(C#N)c1ccc(N2C(=O)OCc3cnc4ccc(-c5cnc6ccccc6c5)cc4c32)cc1 | 104 ± 25 | 94.3 ± 3.9 | 82.3 ± 23 | 49.7 ± 0.79 | 98.1 ± 10 | 102 ± 7 | 81.3 ± 1.9 | 50.8 ± 23 | 101 ± 19 | 100 ± 3 | 79.39 ± 0.72 | 49 ± 9.6 | 86.6 ± 16 | 116 ± 19 | 55.1 ± 1.7 | 38.4 ± 14 | 103 ± 28 | 97 ± 16 | 82.6 ± 15 | 33.2 ± 4.7
2 | CC(C)(C(=O)NCC(F)(F)C(F)(F)F)C(=O)N[C@@H]1C(=O)Nc2ccccc2-c2ccccc21 | 85.7 ± 7.5 | 122 ± 30 | 104 ± 16 | 97.7 ± 28 | 102 ± 5.3 | 109 ± 5.9 | 107 ± 33 | 121 ± 1.3 | 91 ± 1.3 | 133 ± 6.6 | 99 ± 36 | 109 ± 22 | 76.9 ± 11 | 130 ± 2.6 | 92.1 ± 1.7 | 103 ± 30 | 118 ± 3.9 | 99.1 ± 4.5 | 107 ± 3.9 | 109 ± 13
3 | CC(C)CC(=O)Nc1n[nH]c2c1CN(C(=O)C1CCN(C)CC1)C2(C)C | 112 ± 3.1 | 59.02 ± 0.15 | 18.8 ± 1.3 | 11 ± 4.8 | 114 ± 22 | 66.5 ± 1.9 | 43.3 ± 19 | 24.3 ± 1 | 108 ± 26 | 61.4 ± 27 | 30 ± 7.5 | 11.8 ± 1.6 | 70.6 ± 6.3 | 60.4 ± 13 | 31.4 ± 19 | 23.7 ± 10 | 112 ± 16 | 76.6 ± 10 | 42.4 ± 2 | 20.3 ± 0.83
4 | CC(C)OC(=O)C1=CN(C(=O)c2ccc(F)c(F)c2)CC(C)(C)c2c1[nH]c1ccccc21 | 86.2 ± 4.9 | 72.1 ± 4.9 | 83.4 ± 6.3 | 130 ± 24 | 98.9 ± 6.3 | 70 ± 5.8 | 105 ± 24 | 99.6 ± 25 | 81.3 ± 2.4 | 98.8 ± 33 | 77.9 ± 12 | 89.9 ± 24 | 119 ± 27 | 123 ± 59 | 101 ± 44 | 102 ± 58 | 94.8 ± 12 | 89.2 ± 8.8 | 95.2 ± 4.8 | 90.8 ± 6
5 | COc1cc2nc(N3CCCN(C)CC3)nc(NC3CCN(Cc4ccccc4)CC3)c2cc1OC | 123 ± 5.1 | 94.5 ± 18 | 80.2 ± 13 | 9.21 ± 8.3 | 82 ± 20 | 91.6 ± 8.2 | 84.4 ± 5.3 | 5.57 ± 2.9 | 98.3 ± 25 | 93.735 ± 0.032 | 75 ± 25 | 5.97 ± 3.4 | 102 ± 40 | 102 ± 45 | 109 ± 6.8 | 2.54 ± 0.52 | 111 ± 19 | 104 ± 19 | 85.8 ± 5.5 | 5.39 ± 3.1
6 | COc1ccc(-c2ccc3c(N4CCOCC4)nc(N4C[C@@H](C)O[C@@H](C)C4)nc3n2)cc1CO | 85.2 ± 1.6 | 166 ± 26 | 113 ± 5.1 | 57.7 ± 19 | 110 ± 9.1 | 119 ± 17 | 77.5 ± 5.5 | 57.6 ± 7.1 | 84.2 ± 39 | 110 ± 26 | 80.7 ± 2.5 | 51.5 ± 6.7 | 65.9 ± 21 | 116 ± 21 | 101 ± 4.9 | 36.1 ± 2.1 | 100 ± 8.5 | 115 ± 5.9 | 92.1 ± 13 | 48.9 ± 3.5
7 | CS(=O)(=O)c1cccc(CNc2nc(Nc3ccc4c(c3)CCC(=O)N4)ncc2C(F)(F)F)c1 | 122 ± 34 | 123.1 ± 0.038 | 103 ± 6.8 | 32.1 ± 9.6 | 118 ± 28 | 145 ± 3.4 | 105.9 ± 0.85 | 57 ± 3.3 | 85.7 ± 19 | 110.3 ± 0.38 | 87.3 ± 18 | 54.4 ± 9.9 | 98.8 ± 47 | 170 ± 92 | 80.9 ± 4.7 | 45.1 ± 2.2 | 96.9 ± 21 | 119 ± 18 | 86.8 ± 25 | 50.5 ± 4.3
8 | C[C@@H](Oc1cc(-n2cnc3ccc(CN4CCN(C)CC4)cc32)sc1C(N)=O)c1ccccc1C(F)(F)F | 40.66 ± 0.27 | 19.5 ± 2.2 | 12.5 ± 0.32 | 8.66 ± 5.4 | 48.1 ± 11 | 26.1 ± 17 | 31.8 ± 0.68 | 23.3 ± 2.4 | 13.6 ± 4.1 | 13.5 ± 1.8 | 13.4 ± 4.3 | 23.5 ± 4.7 | 112 ± 14 | 22.1 ± 8.8 | 27.7 ± 3.9 | 29.7 ± 12 | 23.8 ± 3.1 | 16.7 ± 4.5 | 17.3 ± 0.54 | 17.6 ± 4.5
9 | C[C@@H]1CN(CC(=O)Nc2ccc3c(c2)Cc2cccc(-c4cc(=O)cc(N5CCOCC5)o4)c2S3)C[C@H](C)O1 | 111 ± 4.9 | 85.1 ± 5.2 | 95.9 ± 20 | 59.4 ± 6.4 | 73.7 ± 24 | 119 ± 3.5 | 108 ± 8.4 | 62.4 ± 3.5 | 86.5 ± 26 | 95.9 ± 33 | 87.7 ± 36 | 33.6 ± 4.6 | 95.6 ± 6 | 92.7 ± 26 | 80.8 ± 9.4 | 38.7 ± 11 | 89.9 ± 3.7 | 110 ± 4.4 | 76.9 ± 3.3 | 64.3 ± 9.2
10 | C[C@@]1(C(=O)Nc2ccc(F)nc2)CCCN1c1nc(Nc2cc(C3CC3)n[nH]2)c2cccn2n1 | 126 ± 33 | 96.4 ± 18 | 70.4 ± 5.7 | 43.2 ± 7.3 | 77.5 ± 8.7 | 89.5 ± 17 | 90 ± 11 | 67.5 ± 16 | 72 ± 24 | 89.9 ± 15 | 74.8 ± 14 | 66 ± 6.5 | 92.7 ± 27 | 73.9 ± 16 | 36 ± 18 | 30.8 ± 12 | 87.8 ± 4.9 | 82.5 ± 10 | 81.5 ± 2.7 | 45.49 ± 0.25
11 | Cc1[nH]c(/C=C2\C(=O)Nc3ccc(S(=O)(=O)N(C)c4cccc(Cl)c4)cc32)c(C)c1C(=O)N1CCN(C)CC1 | 134 ± 62 | 94.8 ± 19 | 95.3 ± 23 | 42.5 ± 11 | 89.8 ± 4.6 | 95 ± 19 | 74.8 ± 2.8 | 60.9 ± 35 | 90.1 ± 7.7 | 102 ± 8.9 | 87.4 ± 16 | 59.6 ± 16 | 95.1 ± 14 | 97.4 ± 3.6 | 54 ± 27 | 37.5 ± 6 | 109 ± 14 | 92.58 ± 0.79 | 90.6 ± 7.8 | 55.2 ± 1.4
12 | Cc1c(Cn2c(C)nc3c(C(=O)O)cc(N4CCOCC4)cc32)cccc1C(F)(F)F | 105 ± 4.5 | 123 ± 22 | 93.9 ± 27 | 112 ± 23 | 100 ± 7.3 | 117 ± 23 | 87 ± 10 | 82.1 ± 1.1 | 137 ± 8 | 123 ± 22 | 98.4 ± 25 | 99.1 ± 8.4 | 126 ± 2.5 | 98.6 ± 13 | 72.1 ± 7 | 108 ± 53 | 115 ± 17 | 85.5 ± 2.4 | 108 ± 19 | 102 ± 10
